# pIC50: −log10 of the molar value. Where two headings read alike, the source gives them in different places.
# Experiments:
# pSTAT1 (Tyr701) = assay: Western blot of STAT 1 / pSTAT1 (Tyr701) in BV2 microglia cells; assay type: cell-based, mouse
# Procedure: (§1) BV2 cells were pre-treated with vehicle or C16 (1 μM) for 2 hours and then incubated with vehicle or oHSV-1 (G207) at an MOI of 1 or oHSV-1 and C16 combination for 24 hours. Total protein was harvested and subjected to western blot assay. β-actin expression was used for loading control (means±SE).
# (§2) BV2 cells were treated with either vehicle or Lps (1 μg/ml) or Lps (1 μg/ml) with C16 (1 μM) for 24 hours. Total protein was harvested and subjected to western blot assay. β-actin expression was used for loading control (means±SE).
# Total protein was harvested with sample buffer (125 mM Tris-HCL, 50% Glycerol, […] and 5% 2-mercaptoethanol) and boiled for 5 minutes. Protein samples were subjected to SDS-PAGE (8% gel), transferred to nitrocellulose membranes and blocked in 5% nonfat milk (Bio Rad) in TBS-Tween 20 (TBS-T) for 1 hour at room temperature. The membranes were then incubated with primary antibody against β-actin at 1:1000 (Cell Signaling, Danvers, Mass.) or anti-STAT1 antibody at 1:1000 (Cell Signaling, Danvers, Mass.) or anti-STAT3 antibody at 1:1000 (Cell Signaling, Danvers, Mass.) or anti-phospho STAT1 antibody (Tyr701) at 1:1000 (Cell Signaling, Danvers, Mass.) or anti-phospho STAT3 antibody (Tyr705) at 1:1500 (Cell Signaling, Danvers, Mass.) or anti-phosphor-eIF2a antibody (ser51) at 1:1000 (Cell Signaling, Danvers, Mass.) or anti-ICP27 antibody at 1:1000 (Abcam, Cambridge, Mass.) or anti-ICP4 antibody at 1:750 (Abcam, Cambridge, Mass.) for overnight at 4° C. The membranes were washed the next day with TBS-T three times and incubated with corresponding secondary antibody at 1:3000 (Perkim Elmer, Boston, Mass.), for 1 hour at room temperature. Membranes were washed with TBS-T three times before visualization using ECL reagent (Perkim Elmer, Boston, Mass.) and VersaDoc imaging system (Bio-Rad). Band density was measured by using ImageJ software (NIH, Bethesda, Md.).
# pSTAT3 (Tyr705) = assay: Western blot of pSTAT3 (Tyr705) in BV2 microglia cells; assay type: cell-based, mouse; settings: C16 1 μM
# Procedure: as §1, §2
# Total protein was harvested with sample buffer (125 mM Tris-HCL, 50% Glycerol, […] and 5% 2-mercaptoethanol) and boiled for 5 minutes. Protein samples were subjected to SDS-PAGE (8% gel), transferred to nitrocellulose membranes and blocked in 5% nonfat milk (Bio Rad) in TBS-Tween 20 (TBS-T) for 1 hour at room temperature. […] Band density was measured by using ImageJ software (NIH, Bethesda, Md.).
# U87 cells = assay: MTT cytotoxicity assay, U87 cells; assay type: cell-based; settings: Homo sapiens, U-87 MG
# Procedure: (FIG. 5A) U87 cells were treated with HrR3 at a MOI of 5 and indicated concentration of nifuroxazide for 6 hours. Extracted protein was then subjected to western blot assay. (FIG. 5B) U87 cells were treated with indicated concentration of HrR3 or nifuroxazide or stattic or in combination for 72 hours. Cytotoxicity was measured by MTT assay. (FIG. 5C) Relative mRNA level (2^−ΔΔCT) is shown. Data are presented as mean SD, *P<0.05 vs corresponding vehicle treatment.
# Expression of key regulator of the Type1 interferon signaling, STAT1 and STAT3, was determined in nifuroxazide treated oHSV-1 infected U87 cells.
# [1] = tested on: oHSV-1 (HrR3) in U87 tumors; assay: oHSV-1 amplification in subcutaneous U87 tumors in vivo (viral DNA qPCR, immunohistochemistry); design: species or system mice
# Text: FIGS. 6A and 6B show results of in vivo dose dependent HrR3 replication augmentation by nifuroxazide. Subcutaneously U87 tumor bearing mice were intratumorally injected with single dose of HrR3 virus (n=2; […]) or peritoneally injected indicated concentration of nifuroxazide or both combination. Tumors were harvested at day 10 post treatment (FIG. 6A) Total genomic DNA was extracted from the harvested tumors. Viral DNA particles (ICP27) were detected by qPCR and normalized to β-actin. (FIG. 6B) ICP4 and STAT1 expression were determined by immunohistochemistry assay on harvested tumor tissues. Stained sections were then imaged using confocal microscopy.
# In this example, oHSV-1 replication augmentation effect was evaluated in vivo. Subcutaneously implanted U87 tumors were treated with either HrR3 alone or in combination with 50 mg/kg nifuroxazide or 100 mg/kg nifuroxazide. Dose dependent oHSV-1 amplification was determined by measuring viral DNA by qPCR in tumor mass. oHSV-1 augmentation was observed 1.6 fold and 2.2 fold by 50 mg/kg nifuroxazide 100 mg/kg nifuroxazide respectively (FIG. 6A).
Structure (SMILES),"upregulation of pSTAT1 (Tyr701) induced by oHSV-1 (pSTAT1 (Tyr701); C16 1 μM, G207 MOI of 1, 24 hours)",expression level of STAT 1 (pSTAT1 (Tyr701); G207 infected microglial cells),"STAT 1 phosphorylation, LPS treated (pSTAT1 (Tyr701); Lps 1 μg/ml, C16 1 μM, 24 hours)","upregulation of pSTAT3 (Tyr705) induced by oHSV-1 (pSTAT3 (Tyr705); G207 MOI of 1, 24 hours)","STAT 3 phosphorylation, LPS treated (pSTAT3 (Tyr705); Lps 1 μg/ml, 24 hours)","pIC50 (U87 cells; in combination with MOI of 1 HrR3, 72 hours, read-out: IC50, nifuroxazide dose in combination)","pIC50 (U87 cells; individual dose, 72 hours, MTT assay, read-out: Inhibitory concentration 50% (IC50))","oHSV-1 augmentation (viral DNA by qPCR in tumor mass) ([1]; 50 mg/kg nifuroxazide with HrR3, day 10)","oHSV-1 augmentation (viral DNA by qPCR in tumor mass) ([1]; 100 mg/kg nifuroxazide with HrR3, day 10)",oHSV-1 amplification by immunohistochemistry assay ([1]; harvested tumor tissues)
"O=C1Nc2ccc3ncsc3c2/C1=C/c1c[nH]cn1 [C16, 6,8-Dihydro-8-(1H-imidazol-5-ylmethylene)-7H-pyrrolo[2,3-g]benzothiazol-7-one]",significantly suppress the upregulation,reduced after C16 treatment,inhibition in STAT 1/3 phosphorylation,significantly suppress the upregulation,inhibition in STAT 1/3 phosphorylation,,,,,
"O=C(N/N=C/c1ccc([N+](=O)[O-])o1)c1ccc(O)cc1 [nifuroxazide, Benzoic acid, 4-hydroxy-, [(5-nitro-2-furanyl)metylene]hydrazide]",,,,,,~5.40,~4.70,1.6 fold,2.2 fold,oHSV-1 amplification was also confirmed
